≈ marks a conversion by molar mass, not a printed value.

In assay [1] the test system is Trichophyton mentagraphytes MTU-19024. As to the kind of experiment: Minimum inhibitory concentration, anti-Trichophyton mentagraphytes activity test, strain MTU-19024. The class given is cell-based. To be noted: 27° C., a week; for MIC: Trichophyton, MTU19024, Sabouraud's dextrose agar. As for the experimental part:
(§1) The activity was tested by the 10 time-step dilution test, using the Sabouraud's dextrose agar culture medium (2% dextrose, 1% pepton and 1.5% agar; pH 6.5±). A platinum loopful (about 10 μl) spore suspension (prepared from a reserved strain of Trichlophyton mentagraphytes and containing 1×10^6 cells/ml) was applied in the form of drawn lines on a plate of a culture medium containing the active ingredients. The culture medium plate was kept at 27° C. for a week and then visually observed to see if any colonies had formed. The minimum inhibitory concentration was defined as the minimum concentration with which formation of distinct colonies on the culture medium plate was not observed.

Assay [2] concerns Trichophyton mentagraphytes MTU-19031. Kind of assay: Minimum inhibitory concentration, anti-Trichophyton mentagraphytes activity test, strain MTU-19031. The class given is cell-based. As to conditions: 27° C., a week; for MIC: Trichophyton, MTU19031, Sabouraud's dextrose agar. As to the method: as §1

For orientation: MIC means the lowest concentration that inhibits growth of the organism. For `CN(C)c1cccc(N(C)C(=S)Oc2ccc(C(C)(C)C)cc2)n1` [compound 36, O--4-t-Butylphenyl N--methyl-N--(6-dimethylamino-:2-pyridyl)-thiocarbamate], the minimal inhibitory concentration (MIC) in assay [1] and in assay [2] was 0.5 µg/mL (≈ 1.46 µM) in each case.

On to `COc1cccc(N(C)C(=S)Oc2ccc(Br)c(C)c2)n1` [compound 46, O--4-Bromo-3-methylphenyl N--(6-methoxy-2-pyridyl)-N--methylthiocarbamate], for which the MIC in assay [1] and in assay [2] was 0.5 µg/mL (≈ 1.36 µM) in each case.

In the case of `Cc1cccc(N(C)C(=S)Oc2ccc3c(c2)CCCC3)n1` [compound 8, O--5,6,7,8-Tetrahydro-2-naphthyl N--methyl-N--(6-methyl-2-pyridyl)thiocarbamate], the MIC in assay [1] and in assay [2] was 0.5 µg/mL (≈ 1.6 µM) in each case.

On to `CCc1ccc(OC(=S)N(C)c2cccc(OC)n2)cc1C` [compound 39, O--4-Ethyl-3-methylphenyl N--(6-methoxy-2-pyridyl)-N--methylthiocarbamate], for which the MIC in assay [1] and in assay [2] was 0.5 µg/mL (≈ 1.58 µM) throughout.

In the case of “O--Methyl-4-nitrophenyl N--(6-methoxy-2-pyridyl)-N--methylthiocarbamate [compound 66]”, the Minimum inhibitory concentration in assay [1] (Sabouraud's dextrose agar) and in assay [2] (Sabouraud's dextrose agar) was 0.5 µg/mL each time.

Consider `CN(C)c1cccc(N(C)C(=S)Oc2ccc(C(F)(F)F)cc2)n1` [compound 68, O--4-Trifluoromethylphenyl N--(6-dimethylamino-2-pyridyl)-N--methylthiocarbamate], for which the minimal inhibitory concentration (MIC) in assay [1] and in assay [2] was 0.5 µg/mL (≈ 1.41 µM) throughout.

For `C=C(C)c1ccc(OC(=S)N(C)c2cccc(OC)n2)cc1` [compound 56, O--4-Isopropenylphenyl N--(6-methoxy-2-pyridyl)-N--methylthiocarbamate], the minimal inhibitory concentration (MIC) in assay [1] and in assay [2] was 0.5 µg/mL (≈ 1.59 µM) throughout.

Take `CCC(C)(C)c1ccc(OC(=S)N(C)c2cccc(OC)n2)cc1` [compound 19, O--4-t-Pentylphenyl N--(6-methoxy-2-pyridyl)-N--methylthiocarbamate]: the minimum inhibitory concentration (MIC) in assay [1] and in assay [2] was 0.5 µg/mL (≈ 1.45 µM) each time.

On to `COc1cccc(N(C)C(=S)Oc2ccc(C(F)(F)F)cc2)n1` [compound 43, O-- 4-Trifluoromethylphenyl N--(6-methoxy-2-pyridyl)-N--methylthiocarbamate], for which the minimal inhibitory concentration (MIC) stood at 0.5 µg/mL (≈ 1.46 µM) in assay [1] and 0.05 µg/mL (≈ 0.146 µM) in assay [2].

Consider `COc1cccc(N(C)C(=S)Oc2ccc3c(c2)C2CCC3CC2)n1` [compound 21, O--1,4-Ethano-1,2,3,4-tetrahydro-6-naphthyl N--(6-methoxy-2-pyridyl)-N--methylthiocarbamate], for which the minimal inhibitory concentration (MIC) in assay [1] and in assay [2] was 0.5 µg/mL (≈ 1.41 µM) throughout.

With `Cc1ccc(N(C)C(=S)Oc2ccc3c(c2)CCC3)nc1C` [compound 26, O--5-Indanyl N--methyl-N--(5,6-dimethyl-2-pyridyl)thiocarbamate], the minimum inhibitory concentration (MIC) in assay [1] and in assay [2] was 0.5 µg/mL (≈ 1.6 µM) in each case.

Take `COc1cccc(N(C)C(=O)Oc2ccc3c(c2)C2CCC3C2)n1` (centres unmarked) [compound 13, 1,4-Methano-1,2,3,4-tetrahydro-6-naphthyl N--(6-methoxy-2-pyridyl)-N--methylcarbamate]: the MIC in assay [1] and in assay [2] was 0.5 µg/mL (≈ 1.54 µM) in each case.

As for `COc1cccc(N(C)C(=S)Oc2ccc(C(C)C)cc2)n1` [compound 30, O--4-Isopropylphenyl N--(6-methoxy-2-pyridyl)-N--methylthiocarbamate], the minimum inhibitory concentration (MIC) in assay [1] and in assay [2] was 0.5 µg/mL (≈ 1.58 µM) in each case.

Take `Cc1ccc(N(C)C(=S)Oc2ccc3ccccc3c2)nc1C` [compound 25, O--2-Naphthyl N--methyl-N--(5,6-dimethyl-2-pyridyl)thiocarbamate]: the MIC in assay [1] and in assay [2] was 0.5 µg/mL (≈ 1.55 µM) throughout.

`COc1cccc(N(C)C(=S)Oc2ccc(C)cc2)n1` [compound 53, O--4-Methylphenyl N--(6-methoxy-2-pyridyl)-N--methylthiocarbamate]: the MIC in assay [1] and in assay [2] was 0.5 µg/mL (≈ 1.73 µM) throughout.

Take `COc1cccc(N(C)C(=S)Oc2ccc3c(c2)C2CCC3C2)n1` (centres unmarked) [compound 12, O--1,4-Methano-1,2,3,4-tetrahydro-6-naphthyl N--(6-methoxy-2-pyridyl)-N--methylthiocarbamate]: the MIC in assay [1] and in assay [2] was 0.5 µg/mL (≈ 1.47 µM) throughout.

For the compound `Cc1cc(C)nc(N(C)C(=S)Oc2ccc3ccccc3c2)c1` [compound 14, O--2-Naphthyl N--methyl-N--(4,6,-dimethyl-2-pyridyl)thiocarbamate], the MIC in assay [1] and in assay [2] was 0.5 µg/mL (≈ 1.55 µM) each time.

For the compound `COc1cccc(N(C)C(=S)Oc2ccc(Br)cc2)n1` [compound 34, O--4-Bromophenyl N--(6-methoxy-2-pyridyl)-N--methylthiocarbamate], the MIC in assay [1] is 0.5 µg/mL (≈ 1.42 µM); in assay [2], 0.05 µg/mL (≈ 0.142 µM).

Consider `COc1cccc(N(C)C(=S)Oc2ccc(SC)cc2)n1` [compound 62, O--4-Methylthiophenyl N--(6-methoxy-2-pyridyl)-N--methylthiocarbamate], for which the figures for the minimum inhibitory concentration (MIC) in assay [1] and in assay [2] were 0.5 µg/mL (≈ 1.56 µM) and 0.05 µg/mL (≈ 0.156 µM), respectively.

Regarding `COc1cccc(N(C)C(=S)Oc2ccc(C)c(C)c2)n1` [compound 22, O--3,4-Dimethylphenyl N--(6-methoxy-2-pyridyl)-N--methylthiocarbamate], the MIC in assay [1] and in assay [2] was 0.5 µg/mL (≈ 1.65 µM) each time.

As to `COc1cccc(N(C)C(=S)Oc2ccc(C(C)C)c(C)c2)n1` [compound 41, O--4-Isopropyl-3-methylphenyl N--(6-methoxy-2-pyridyl)-N--methylthiocarbamate], the minimum inhibitory concentration (MIC) in assay [1] and in assay [2] was 0.5 µg/mL (≈ 1.51 µM) in each case.

Take `CCCc1ccc(OC(=S)N(C)c2cccc(OC)n2)cc1` [compound 65, O--4-Propylphenyl N--(6-methoxy-2-pyridyl)-N--methylthiocarbamate]: the minimum inhibitory concentration (MIC) in assay [1] and in assay [2] was 0.5 µg/mL (≈ 1.58 µM) each time.

For the compound `COc1cccc(N(C)C(=S)Oc2ccc(Cl)c(Cl)c2)n1` [compound 50, O--3,4-Dichlorophenyl N--(6-methoxy-2-pyridyl)-N--methylthiocarbamate], the minimum inhibitory concentration (MIC) in assay [1] and in assay [2] was 0.5 µg/mL (≈ 1.46 µM) each time.

As for `COc1cccc(N(C)C(=S)Oc2ccc(Cl)c(C)c2)n1` [compound 38, O--4-Chloro-3-methylphenyl N--(6-methoxy-2-pyridyl)-N--methylthiocarbamate], the minimum inhibitory concentration (MIC) in assay [1] worked out at 0.5 µg/mL (≈ 1.55 µM); in assay [2] it was 0.05 µg/mL (≈ 0.155 µM).

In the case of `CCc1ccc(OC(=S)N(C)c2cccc(OC)n2)cc1` [compound 33, O--4-Ethylphenyl N--(6-methoxy-2-pyridyl)-N--methylthiocarbamate], the MIC came out at 0.5 µg/mL (≈ 1.65 µM) in assay [1] and 0.05 µg/mL (≈ 0.165 µM) in assay [2].

On to `Cc1cc(C)nc(N(C)C(=S)Oc2ccc3c(c2)CCC3)c1` [compound 15, O--5-Indanyl N--methyl-N--(4,6-dimethyl-2-pyridyl)thiocarbamate], for which the minimum inhibitory concentration (MIC) in assay [1] and in assay [2] was 0.5 µg/mL (≈ 1.6 µM) throughout.

For the compound `CNc1cccc(N(C)C(=S)Oc2ccc(C(C)(C)C)cc2)n1` [compound 58, O--4-t-Butylphenyl N--methyl-N--(6-methylamino-2-pyridyl)thiocarbamate], the MIC in assay [1] and in assay [2] was 0.5 µg/mL (≈ 1.52 µM) throughout.

Regarding `CN(C)c1cccc(N(C)C(=S)Oc2ccc3ccccc3c2)n1` [compound 35, O--2-Naphthyl N--methyl-N--(6-dimethylamino-2-pyridyl)-thiocarbamate], the MIC in assay [1] and in assay [2] was 0.5 µg/mL (≈ 1.48 µM) throughout.

The record behind these values is patent US4621090A, “Antifungal compositions” (Toyo Soda Manufacturing Co., Ltd., priority 1983, dated 1986).
